Patent publication US9789096B2, “Methods and compositions for selective and targeted cancer therapy” (Board of Regents of the University of Texas System, priority 2013, dated 2017)

Experiments:
H2122 clones = assay: Toxicity to H2122 clones with loss of HMOX2; format: cell-based, human
Description: FIG. 7O. H2122 cells were engineered to have homozygous or heterozygous loss of HMOX2. hCas9 and guide RNA's targeting HMOX2 were co-expressed in H2122 cells and then cells were individually cloned. Individual clones were raised and analyzed for HMOX2 expression.
FIG. 7P. HMOX2 loss has no impact on the sensitivity of cells to SW208108. A dose response curve assaying the toxicity of SW208108 to H2122 clones identified in FIG. 7O was determined. There is no correlation between HMOX2 expression and SW208108 potency.
(§1) However, when HO2 was knocked out from H2122 cells using Crisper technology (FIG. 7O), no toxicity was observed, and SW208108 and related compounds retained toxicity towards H2122 cells (FIG. 7P). We conclude that HO2 is not required for cell survival or for the cytotoxicity of the selective toxins.

H2122 cells = assay: Lipid ratios in H2122 cells by MS/MS; format: cell-based, human; conditions: 100 nM, within 6 hours
Description: FIG. 8A. Covalent binders of SCD1 affect lipid ratios in human cancer cells. H2122 cells were treated with 100 nM SW208108 for the indicated times before a lipid extraction was performed. Lipid extracts were analyzed by MS/MS in order to determine the fractional content of 8 different lipid species including triacylglycerols (TAG) and diacylglycerols (DAG). In MS/1, the total number of carbons and number of unsaturated bonds was determined for all of the fatty acid chains. For example, TAG (50:3) is a triacylglycerol with 3 fatty acid chains that all together have 50 carbons and 3 unsaturated bonds. The mass for one of these fatty acids was determined in MS/2 and is listed as noted by its carbon length and unsaturated bond number using the same notation.
SCD1 catalyzes the dehydrogenation of saturated fatty acid-CoA's to form unsaturated fatty acid-CoA's. For example, the enzyme gets its name from the conversion of stearic acid-CoA to oleic acid-CoA. For this reason, inhibition SCD1 was expected to alter the ratio of saturated:unsaturated fatty acids.

SCD1 [1] = target: T1, SCD1 (Homo sapiens, UniProt O00767); assay: Covalent adduct formation in 293t cells transfected with SCD1 or CYP4F11; format: cell-based; parameters: expressed in transfected cells; host or cells: 293t cells
T1 sequence (O00767 1-359): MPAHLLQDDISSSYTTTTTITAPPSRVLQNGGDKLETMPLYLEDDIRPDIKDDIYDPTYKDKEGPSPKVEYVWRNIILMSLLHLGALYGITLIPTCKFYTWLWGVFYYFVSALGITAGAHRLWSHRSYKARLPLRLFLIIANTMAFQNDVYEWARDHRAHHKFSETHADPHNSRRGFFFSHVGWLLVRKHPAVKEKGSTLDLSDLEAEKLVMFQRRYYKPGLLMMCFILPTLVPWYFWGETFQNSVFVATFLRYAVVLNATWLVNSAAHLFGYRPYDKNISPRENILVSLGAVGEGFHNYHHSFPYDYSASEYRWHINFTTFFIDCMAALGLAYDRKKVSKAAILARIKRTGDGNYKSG
Text: (§2) FIGS. 10A-10F. Sensitive cells express high levels of CYP4 family members. FIG. 10A. relative expression levels of mRNA for a panel of cytochrome P450 enzymes from the cancer cell line encyclopedia (CCLE, http://www.broadinstitute.org/ccle) showing CYP4F11 in particular is highly expressed in 4 NSCLC lines that are sensitive to SCD1 inhibition. FIG. 10B. Western blot showing that CYP4F11 protein is expressed in all sensitive cell lines but not in the majority of insensitive cell lines. FIG. 10C. […] FIG. 10D. Cells were incubated with either a methoxy-containing oxalamide, which represents the pro-drug form, or the hydroxy containing oxalamide, which represents the active form of the drug. […] FIG. 10E. 293t cells were transfected with mammalian expression plasmids containing SCD1 or CYP4F11 as indicated. Cells were treated with either SW208108 or its demethylated congener, SW211666, and conjugated with a fluorescent dye as described in FIG. 7. Cells containing CYP4F11 form covalent adducts with both the pro-drug (methoxy) and drug form (demethylated, i.e. OH). […] FIG. 10F. Shown are the results of a tritium release assay in which tritiated water is produced from tritiated stearoyl CoA by the action of SCD1. […] By contrast, SW211666 but not SW208108 inhibits SCD1 in mouse preputial gland, which lacks CYP4F11 (bottom). […]

SCD1 [2] = target: T2, SCD1 (Mus musculus, UniProt P13516); assay: Tritium release assay of SCD1 activity, mouse preputial gland; format: biochemical; conditions: preputial gland lacks CYP4F11
T2 construct: tissue derived from mouse liver and preputial gland was independently exposed; from tissue; host or cells: mouse liver
Text: as §2

HMOX2 = target: T3, HMOX2 (Homo sapiens, UniProt P30519); assay: HMOX2 activity in H2122 cell homogenate (bilirubin production); format: biochemical
T3 construct: endogenous in cells; host or cells: H2122 cells (homogenate / lysate)
Description: FIG. 7N. Oxalamide inhibits the activity of HMOX2 in vitro. H2122 cell homogenate was incubated with varying concentrations of SW208108 in the presence of excess NADPH, NADPH cytochrome reductase, and biliverdin reductase. The samples were extracted with chloroform and absorbance was measured at 450 nm refecting bilirubin production.
as §1

SCD1 [3] = target: T2, SCD1; assay: Tritium release assay of SCD1 activity, mouse liver; format: biochemical; conditions: liver expresses CYP4F11
Text: as §2

T2 sequence (P13516 whole entry): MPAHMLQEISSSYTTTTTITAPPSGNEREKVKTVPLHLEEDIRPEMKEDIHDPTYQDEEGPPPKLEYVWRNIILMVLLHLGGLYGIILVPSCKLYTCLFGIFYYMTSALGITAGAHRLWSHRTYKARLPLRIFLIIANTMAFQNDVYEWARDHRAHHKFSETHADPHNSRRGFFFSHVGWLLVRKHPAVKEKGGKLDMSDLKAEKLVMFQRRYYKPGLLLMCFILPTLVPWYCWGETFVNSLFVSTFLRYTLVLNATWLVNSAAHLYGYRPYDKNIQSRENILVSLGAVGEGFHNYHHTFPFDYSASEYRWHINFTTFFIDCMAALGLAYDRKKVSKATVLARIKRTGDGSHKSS
T3 sequence (P30519 whole entry): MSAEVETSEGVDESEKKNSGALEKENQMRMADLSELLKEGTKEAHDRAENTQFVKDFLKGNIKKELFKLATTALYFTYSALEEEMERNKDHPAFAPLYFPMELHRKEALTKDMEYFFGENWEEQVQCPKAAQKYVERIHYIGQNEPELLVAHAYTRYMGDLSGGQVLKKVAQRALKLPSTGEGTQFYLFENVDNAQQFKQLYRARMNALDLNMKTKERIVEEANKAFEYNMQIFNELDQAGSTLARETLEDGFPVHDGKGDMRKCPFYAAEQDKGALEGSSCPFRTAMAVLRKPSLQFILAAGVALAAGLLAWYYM

C#CCOc1ccc(C(=O)c2ccc(NC(=O)C(=O)NCCc3ccc(OC)cc3)cc2)cc1 [SW208108]
impact of HMOX2 loss on sensitivity of H2122 clones (H2122 clones): no impact
saturated vs unsaturated fatty acids in neutral lipids (H2122 cells): increased the percentage of neutral lipids containing saturated fatty acids
covalent modification of SCD1 in 293t cells in the absence of CYP4F11 (SCD1 [1]; SCD1 expressed alone): unable to covalently modify SCD1
covalent modification of SCD1 in 293t cells expressing SCD1 and CYP4F11 (SCD1 [1]; with or without HET0016): covalently modify SCD1
inhibition of SCD1 activity in mouse preputial gland tissue (SCD1 [2]): not in the preputial gland
activity of HMOX2 in vitro (HMOX2): inhibits
inhibition of SCD1 activity in mouse liver tissue (SCD1 [3]): only inhibited SCD1 activity in the liver
